pIC50: −log10 of the molar value. Counter-ions that a name gives are not always drawn. Like-named read-outs stand apart in the source and are kept apart here.
Test system: production of amyloid beta protein Aβ(1-42) (γ-secretase) in human WT-APP overexpressing CHO cells
Test: Cell-Based γ-Secretase Assay with ELISA Readout
Conditions: read-out: Aβ 42B IC50 (Geometric Mean of 2-6 Determinations)
How it was run: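 Human WT-APP-overexpressing CHO cells were pre-cultured 24 h at 37° C, then exposed to compounds (eleven-point half-log series, 1% final DMSO) for ~24 h. Aβ(1-42) in conditioned media was captured with Aβ(1-42)-specific antibody and detected with Eu-labeled 6e10 by DELFIA TRF. IC50 by nonlinear regression against min/max inhibition controls.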

[1] = human WT-APP overexpressing CHO cells, ~24 hours at 37° C., Aβ(1-42) ELISA, footnotes: a = geometric mean of >15 determinations, b = single determination, c = geometric mean of 7-15 determinations

`Cc1cn(-c2ccc3n(c2=O)CCN([C@@H](C)COc2ccccc2S(F)(F)(F)(F)F)C3=O)cn1` [Example 120, 7-(4-methyl-1H-imidazol-1-yl)-2-{(2S)-1-[2-(pentafluoro-λ^6-sulfanyl)phenoxy]propan-2-yl}-3,4-dihydro-2H-pyrido[1,2-a]pyrazine-1,6-dione] showed a pIC50 [1] of 7.75.
For `Cc1cn(-c2ccc3n(c2=O)CCN(CCOc2cccc(-c4ccccc4)c2)C3=O)cn1` [Example 18, 2-[2-(biphenyl-3-yloxy)ethyl]-7-(4-methyl-1H-imidazol-1-yl)-3,4-dihydro-2H-pyrido[1,2-a]pyrazine-1,6-dione], the pIC50 [1] was 6.82.
With `Cc1cn(-c2ccc3n(c2=O)CCN(CCOc2cccc4sc5ccccc5c24)C3=O)cn1` [Example 79, 2-[2-(dibenzo[b,d]thien-1-yloxy)ethyl]-7-(4-methyl-1H-imidazol-1-yl)-3,4-dihydro-2H-pyrido[1,2-a]pyrazine-1,6-dione] the pIC50 [1] was 8.14.
Work on `Cc1cn(-c2ccc3n(c2=O)CCN(CCOc2ccccc2-c2ccc(C#N)cc2)C3=O)cn1` [Example 90, 2′-{2-[7-(4-methyl-1H-imidazol-1-yl)-1,6-dioxo-1,3,4,6-tetrahydro-2H-pyrido[1,2-a]pyrazin-2-yl]ethoxy}biphenyl-4-carbonitrile, formate salt] yielded a pIC50 [1] of 6.83.
Compound `Cc1ccc(OCCN2CCn3c(ccc(-n4cnc(C)c4)c3=O)C2=O)c(Cl)c1` [Example 17, 2-[2-(2-chloro-4-methylphenoxy)ethyl]-7-(4-methyl-1H-imidazol-1-yl)-3,4-dihydro-2H-pyrido[1,2-a]pyrazine-1,6-dione] has a pIC50 [1] of 6.82.
`Cc1cn(-c2ccc3n(c2=O)CCN(CCOc2ccc(Cl)cc2-n2ccc(C(F)(F)F)n2)C3=O)cn1` [Example 50, 2-(2-{4-chloro-2-[3-(trifluoromethyl)-1H-pyrazol-1-yl]phenoxy}ethyl)-7-(4-methyl-1H-imidazol-1-yl)-3,4-dihydro-2H-pyrido[1,2-a]pyrazine-1,6-dione, trifluoroacetate salt] showed a pIC50 [1] of 7.53.
For `Cc1cn(-c2ccc3n(c2=O)CCN(CCOc2ccccc2[Si](C)(C)C)C3=O)cn1` [Example 121, 7-(4-methyl-1H-imidazol-1-yl)-2-{2-[2-(trimethylsilyl)phenoxy]ethyl}-3,4-dihydro-2H-pyrido[1,2-a]pyrazine-1,6-dione], the pIC50 (CHO, 24 h) was 7.52.
For `COc1ccc2c(OCCN3CCn4c(ccc(-n5cnc(C)c5)c4=O)C3=O)cccc2c1F` [Example 64, 2-{2-[(5-fluoro-6-methoxy-1-naphthyl)oxy]ethyl}-7-(4-methyl-1H-imidazol-1-yl)-3,4-dihydro-2H-pyrido[1,2-a]pyrazine-1,6-dione, trifluoroacetate salt], the pIC50 [1] was 7.37.
Work on `Cc1ccc(OCCN2CCn3c(ccc(-n4cnc(C)c4)c3=O)C2=O)c(-c2cc(C(F)(F)F)on2)c1` [Example 38, 7-(4-methyl-1H-imidazol-1-yl)-2-(2-{4-methyl-2-[5-(trifluoromethyl)isoxazol-3-yl]phenoxy}ethyl)-3,4-dihydro-2H-pyrido[1,2-a]pyrazine-1,6-dione, trifluoroacetate salt] yielded a pIC50 [1] of 6.53.
With `Cc1cn(-c2ccc3n(c2=O)CCN(CCOc2ccccc2-c2cc(C(F)(F)F)no2)C3=O)cn1` [Example 72, 7-(4-methyl-1H-imidazol-1-yl)-2-(2-{2-[3-(trifluoromethyl)isoxazol-5-yl]phenoxy}ethyl)-3,4-dihydro-2H-pyrido[1,2-a]pyrazine-1,6-dione] the pIC50 [1] was 7.83.
`Cc1cn(-c2ccc3n(c2=O)CCN(CCOc2ccc(Cl)c(F)c2C(F)(F)F)C3=O)cn1` [Example 45, 2-{2-[4-chloro-3-fluoro-2-(trifluoromethyl)phenoxy]ethyl}-7-(4-methyl-1H-imidazol-1-yl)-3,4-dihydro-2H-pyrido[1,2-a]pyrazine-1,6-dione, trifluoroacetate salt] gave a pIC50 [1] of 7.18.
`Cc1cn(-c2ccc3n(c2=O)CCN(C(C)C(C)Oc2ccccc2S(F)(F)(F)(F)F)C3=O)cn1` (single isomer, unassigned) [Example 124, 7-(4-methyl-1H-imidazol-1-yl)-2-{3-[2-(pentafluoro-λ^6-sulfanyl)phenoxy]butan-2-yl}-3,4-dihydro-2H-pyrido[1,2-a]pyrazine-1,6-dione] showed a pIC50 [1] of 5.64.
In the case of `Cc1cn(-c2ccc3n(c2=O)CCN(CCOc2ccccc2-c2ccc(C#N)c(C(F)(F)F)c2)C3=O)cn1` [Example 65, 2′-{2-[7-(4-methyl-1H-imidazol-1-yl)-1,6-dioxo-1,3,4,6-tetrahydro-2H-pyrido[1,2-a]pyrazin-2-yl]ethoxy}-3-(trifluoromethyl)biphenyl-4-carbonitrile], the pIC50 [1] was 7.34.
`Cc1cn(-c2ccc3n(c2=O)CCN(CCOc2ncc(Cl)c4ccccc24)C3=O)cn1` [Example 68, 2-{2-[(4-chloroisoquinolin-1-yl)oxy]ethyl}-7-(4-methyl-1H-imidazol-1-yl)-3,4-dihydro-2H-pyrido[1,2-a]pyrazine-1,6-dione, trifluoroacetate salt] showed a pIC50 [1] of 7.23.
With `Cc1cn(-c2ccc3n(c2=O)CCN(CCOc2ccccc2-c2csc(C)n2)C3=O)cn1` [Example 36, 7-(4-methyl-1H-imidazol-1-yl)-2-{2-[2-(2-methyl-1,3-thiazol-4-yl)phenoxy]ethyl}-3,4-dihydro-2H-pyrido[1,2-a]pyrazine-1,6-dione, trifluoroacetate salt] the pIC50 [1] was 6.52.
For `Cc1cn(-c2ccc3n(c2=O)[C@@H](C)CN(CCOc2ccc(F)cc2C(F)(F)F)C3=O)cn1` [Example 112, (4S)-2-{2-[4-fluoro-2-(trifluoromethyl)phenoxy]ethyl}-4-methyl-7-(4-methyl-1H-imidazol-1-yl)-3,4-dihydro-2H-pyrido[1,2-a]pyrazine-1,6-dione], the pIC50 [1] was 6.47.
In the case of `Cc1cn(-c2ccc3n(c2=O)CCN(CCOc2ccc(F)cc2-c2ccnc(C(F)(F)F)c2)C3=O)cn1` [Example 48, 2-(2-{4-fluoro-2-[2-(trifluoromethyl)pyridin-4-yl]phenoxy}ethyl)-7-(4-methyl-1H-imidazol-1-yl)-3,4-dihydro-2H-pyrido[1,2-a]pyrazine-1,6-dione], the pIC50 [1] was 6.84.
Compound `Cc1cc(-c2ccc3n(c2=O)CCN(CCOc2ccc(Cl)cc2C(F)(F)F)C3=O)ccn1` [Example 116, 2-{2-[4-chloro-2-(trifluoromethyl)phenoxy]ethyl}-7-(2-methylpyridin-4-yl)-3,4-dihydro-2H-pyrido[1,2-a]pyrazine-1,6-dione] has a pIC50 [1] of 5.46.
Compound `Cc1cn(-c2ccc3n(c2=O)CCN(CCOc2ccccc2-c2coc(C)n2)C3=O)cn1` [Example 41, 7-(4-methyl-1H-imidazol-1-yl)-2-{2-[2-(2-methyl-1,3-oxazol-4-yl)phenoxy]ethyl}-3,4-dihydro-2H-pyrido[1,2-a]pyrazine-1,6-dione, trifluoroacetate salt] has a pIC50 [1] of 6.81.
In the case of `Cc1cn(-c2ccc3n(c2=O)CCCN(CCOc2ccc(Cl)cc2C(F)(F)F)C3=O)cn1` [Example 111, 2-{2-[4-chloro-2-(trifluoromethyl)phenoxy]ethyl}-8-(4-methyl-1H-imidazol-1-yl)-2,3,4,5-tetrahydropyrido[1,2-a][1,4]diazepine-1,7-dione], the pIC50 [1] was 6.86.
Compound `Cc1cn(-c2ccc3n(c2=O)CCN(C(C)C(C)Oc2ccccc2S(F)(F)(F)(F)F)C3=O)cn1` (single isomer, unassigned) [Example 126, 7-(4-methyl-1H-imidazol-1-yl)-2-{3-[2-(pentafluoro-λ^6-sulfanyl)phenoxy]butan-2-yl}-3,4-dihydro-2H-pyrido[1,2-a]pyrazine-1,6-dione] has a pIC50 [1] of 7.70.
Compound `Cc1cn(-c2ccc3n(c2=O)CCN(CCCOc2cc(C)c(Cl)c(C)c2)C3=O)cn1` [Example 28, 2-[3-(4-chloro-3,5-dimethylphenoxy)propyl]-7-(4-methyl-1H-imidazol-1-yl)-3,4-dihydro-2H-pyrido[1,2-a]pyrazine-1,6-dione] has a pIC50 [1] of 7.50.
`Cc1cn(-c2ccc3n(c2=O)CCN(CCOc2cccc4[nH]c(C(F)(F)F)cc24)C3=O)cn1` [Example 101, 7-(4-methyl-1H-imidazol-1-yl)-2-(2-{[2-(trifluoromethyl)-1H-indol-4-yl]oxy}ethyl)-3,4-dihydro-2H-pyrido[1,2-a]pyrazine-1,6-dione] was tested, and the pIC50 [1] was 6.34.
For `Cc1cn(-c2ccc3n(c2=O)CCN(CCOc2cccc4c2CCCC4)C3=O)cn1` [Example 14, 7-(4-methyl-1H-imidazol-1-yl)-2-[2-(5,6,7,8-tetrahydronaphthalen-1-yloxy)ethyl]-3,4-dihydro-2H-pyrido[1,2-a]pyrazine-1,6-dione], the pIC50 [1] was 6.71.
For `Cc1cn(-c2ccc3n(c2=O)CCN(CCOc2ccc(F)cc2C(F)(F)F)C3=O)cn1` [Example 1, 2-{2-[4-Fluoro-2-(trifluoromethyl)phenoxy]ethyl}-7-(4-methyl-1H-imidazol-1-yl)-3,4-dihydro-2H-pyrido[1,2-a]pyrazine-1,6-dione], the pIC50 [1] was 6.59.
With `Cc1cn(-c2ccc3n(c2=O)CCN(CCOc2ccc(F)c(Cl)c2Cl)C3=O)cn1` [Example 23, 2-[2-(2,3-dichloro-4-fluorophenoxy)ethyl]-7-(4-methyl-1H-imidazol-1-yl)-3,4-dihydro-2H-pyrido[1,2-a]pyrazine-1,6-dione] the pIC50 [1] was 6.76.
With `COc1ccc(-c2cc(C(F)(F)F)[nH]n2)c(OCCN2CCn3c(ccc(-n4cnc(C)c4)c3=O)C2=O)c1` [Example 54, 2-(2-{5-methoxy-2-[5-(trifluoromethyl)-1H-pyrazol-3-yl]phenoxy}ethyl)-7-(4-methyl-1H-imidazol-1-yl)-3,4-dihydro-2H-pyrido[1,2-a]pyrazine-1,6-dione] the pIC50 [1] was 6.67.
Work on `Cc1cn(-c2ccc3n(c2=O)CCN(CCOc2ccnc4cc(C(F)(F)F)ccc24)C3=O)cn1` [Example 61, 7-(4-methyl-1H-imidazol-1-yl)-2-(2-{[7-(trifluoromethyl)quinolin-4-yl]oxy}ethyl)-3,4-dihydro-2H-pyrido[1,2-a]pyrazine-1,6-dione] yielded a pIC50 [1] of 6.97.

Source: US9067934B2, “Bicyclic pyridinones” (Pfizer Inc., priority 2011, dated 2015)
